Assay results: publication PMC8963580, “Biophysical methods in early drug discovery” (ADMET & DMPK, 2019)

How the values were obtained:
[1] = molecular target: T1, 15N-labeled NAD binding domain of PHGDH (Homo sapiens, UniProt O43175); assay: 2D NMR binding assay (1H15N-TROSY-HSQC chemical shift titration); details: read-out: Kd (chemical shift change versus compound concentration)
T1 sequence (O43175 93-298 limits assumed): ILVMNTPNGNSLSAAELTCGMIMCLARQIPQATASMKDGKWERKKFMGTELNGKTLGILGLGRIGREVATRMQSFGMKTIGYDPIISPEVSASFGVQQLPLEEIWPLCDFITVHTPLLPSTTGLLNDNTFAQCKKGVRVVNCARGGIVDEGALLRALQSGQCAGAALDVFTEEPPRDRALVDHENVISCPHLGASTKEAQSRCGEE
From the text: The enzyme 3-phosphohydroxyglycerate dehydrogenase (PHGDH) utilises oxidised ninotinamide dinucleotide (NAD+) and catalyses the conversion of 3-phosphohydroxyglycerate to 3-phosphohydroxypyruvate in humans. The conversion of 3-phosphohydroxyglycerate to 3-phosphohydroxypyruvate is the first, and rate-limiting step, in synthesis of the amino acid serine. Studies have linked PHGDH to the in vivo tumourigenesis in aggressive breast tumours and functional genomics reveal that the serine synthesis pathway is essential in breast cancer. Thus, the druggability of the target was explored with small molecules. To this end a fragment screen of 384 fragments was undertaken using crystal cocktail soaking (mixtures of 4) against the NAD binding domain of PHGDH and 34 hits were identified. The binding affinities of these hits were determined in a 2D NMR binding assay using 15N-labeled NAD binding domain, Figure 6a. […] A simple analogue of an initial crystallography hit (compound 1), the 5-fluoroindole-2-carboxamide (compound 2) bound at a resolution of 1.95 Å in the adenine pocket of the NAD binding site (Figure 6b). The indole NH forms a water-bridged hydrogen bond network with Ser-211, and the 5-fluoro substituent fits nicely into a lipophilic cleft in the binding pocket. […]

PHGDH = molecular target: T2, PHGDH (Homo sapiens, UniProt O43175); assay: Affinity for PHGDH during fragment optimisation (method not given); type: binding
T2 sequence (O43175 1-533): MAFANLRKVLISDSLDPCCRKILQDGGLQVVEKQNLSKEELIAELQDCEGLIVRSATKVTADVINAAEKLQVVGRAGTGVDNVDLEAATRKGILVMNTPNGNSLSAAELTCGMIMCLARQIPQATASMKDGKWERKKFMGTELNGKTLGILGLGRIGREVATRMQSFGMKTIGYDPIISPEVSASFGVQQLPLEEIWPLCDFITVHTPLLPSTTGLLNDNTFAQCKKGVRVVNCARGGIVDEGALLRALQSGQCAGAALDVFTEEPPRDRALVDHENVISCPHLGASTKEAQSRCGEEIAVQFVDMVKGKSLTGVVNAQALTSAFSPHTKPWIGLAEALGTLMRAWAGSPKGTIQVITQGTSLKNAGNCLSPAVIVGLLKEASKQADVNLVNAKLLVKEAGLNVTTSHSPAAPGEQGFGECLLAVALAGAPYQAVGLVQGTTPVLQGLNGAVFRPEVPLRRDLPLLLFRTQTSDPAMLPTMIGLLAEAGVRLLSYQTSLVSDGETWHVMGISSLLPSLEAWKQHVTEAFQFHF
From the text: The enzyme 3-phosphohydroxyglycerate dehydrogenase (PHGDH) utilises oxidised ninotinamide dinucleotide (NAD+) and catalyses the conversion of 3-phosphohydroxyglycerate to 3-phosphohydroxypyruvate in humans. The conversion of 3-phosphohydroxyglycerate to 3-phosphohydroxypyruvate is the first, and rate-limiting step, in synthesis of the amino acid serine. Studies have linked PHGDH to the in vivo tumourigenesis in aggressive breast tumours and functional genomics reveal that the serine synthesis pathway is essential in breast cancer. Thus, the druggability of the target was explored with small molecules. […] The binding affinities of these hits were determined in a 2D NMR binding assay using 15N-labeled NAD binding domain, Figure 6a. […]
Considering this knowledge, a 1D NMR competition assay with NAD+ as the reference compound was developed. […] It is noteworthy that fragments and many of the synthesised analogues had no measurable activity in the human PHGDH protein NAD fluorescence intensity biochemical assay. Whilst the biophysical methods allowed a wide dynamic range of weak mM to sub μM affinities be determined, the biochemical assay could only be used to provide affinities that could drive SAR once those affinities were sub micromolar. […]

InhA.NAD+ = InhA.NAD+ (Mycobacterium tuberculosis, UniProt P9WGR1); assay: SPR profiling of DEL screening hits, in the presence of 2 mM NAD+; type: binding
Sequence of InhA.NAD+ (P9WGR1 whole entry, looked up): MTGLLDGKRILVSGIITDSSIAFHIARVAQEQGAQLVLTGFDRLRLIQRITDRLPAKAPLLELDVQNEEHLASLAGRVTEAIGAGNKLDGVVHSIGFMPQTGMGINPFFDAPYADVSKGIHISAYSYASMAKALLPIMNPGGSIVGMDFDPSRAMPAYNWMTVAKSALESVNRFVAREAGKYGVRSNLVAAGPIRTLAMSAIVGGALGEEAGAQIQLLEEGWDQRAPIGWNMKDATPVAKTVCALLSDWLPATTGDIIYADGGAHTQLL

InhA.NADH = InhA.NADH (Mycobacterium tuberculosis, UniProt P9WGR1); assay: SPR profiling of DEL screening hits, in the presence of 100 μM NADH; type: binding
Sequence of InhA.NADH (P9WGR1 whole entry, looked up): as above

Apo InhA = Apo InhA (Mycobacterium tuberculosis, UniProt P9WGR1); assay: SPR profiling of DEL screening hits, compound injected alone; type: binding
Sequence of Apo InhA (P9WGR1 whole entry, looked up): as above

full length PHGDH [2] = molecular target: T3, full length PHGDH (Homo sapiens, UniProt O43175); assay: ITC titration; type: binding
T3 sequence (O43175 1-533): T2 sequence (O43175 1-533)

full length PHGDH [3] = molecular target: T3, full length PHGDH; assay: SPR titration, steady state fit; type: binding
From the text: Considering this knowledge, a 1D NMR competition assay with NAD+ as the reference compound was developed. This screen employed the more physiologically relevant full length PHGDH protein, to provide continuity for affinity measurement during the subsequent analoguing phase. It is noteworthy that fragments and many of the synthesised analogues had no measurable activity in the human PHGDH protein NAD fluorescence intensity biochemical assay. Whilst the biophysical methods allowed a wide dynamic range of weak mM to sub μM affinities be determined, the biochemical assay could only be used to provide affinities that could drive SAR once those affinities were sub micromolar. In summary, a fragment crystal cocktail screen, supported with biophysical affinity measurements, provided the first known small molecule known nanomolar inhibitors of PHGDH and valuable tools for interrogating the biology of this target.
(b) SPR titration data for NADH binding to full length PHGDH, Kd = 0.4 ± 0.03 μM determined from a steady state fit, with the kinetic fit curve shown in the inset. […] No label is printed directly beside the Kd values; 'Spot 1' and 'Spot 2' are printed at the top of the plots.

[4] = molecular target: T4, NAD binding domain of PHGDH (Homo sapiens, UniProt O43175); assay: SPR titration, steady state fit
T4 sequence (O43175 93-298 limits assumed): T1 sequence (O43175 93-298 limits assumed)

SMILES	Kd (InhA.NAD+) [µM]	Kd (InhA.NADH) [µM]	Kd (Apo InhA) [µM]	other results
NC(=O)c1cc2cc(F)ccc2[nH]1 [Compound 2, 5-fluoroindole-2-carboxamide]				Kd [1]: 980 ± 60 µM
COc1cc2[nH]c(C(=O)N[C@H](CO)c3ccccc3)cc2cc1Cl [Compound 4]				affinity (PHGDH; method not stated): single digit
O=C(O)c1ccc([C@@H](CO)NC(=O)c2cc3cc(Cl)ccc3[nH]2)cc1 [Compound 5]				fold improvement in affinity (PHGDH; relative to compound 4): 10 fold
Cc1c(CC(=O)NC2CCC(CC(=O)N3CCN(CC(=O)CN)C(=O)C3Cc3ccccc3)CC2)sc2ccccc12 (centres unmarked) [Compound 6]	13.4 ± 4.3	0.3 ± 0.2	> 100	
CNC(=O)CN(Cc1ccc(C)cc1)C(=O)C[C@H]1CC[C@H](CC(=O)c2nnn(Cc3ccccc3)c2C)CC1 [Compound 7]	46.7 ± 11.6	0.09 ± 0.06	> 100	
CNC(=O)c1cnc(NC2CCN(c3ccccn3)CC2)c(NCc2ccc(F)c(Oc3ccccc3)c2)c1 [Compound 8]	> 100	0.3 ± 0.1	> 100	
CNC(=O)CN(C(=O)Cc1ccc(-n2cccn2)cc1)C1CCN(c2ccccn2)CC1 [Compound 9]	> 100	36.8 ± 3.3	> 100	
CNC(=O)C1CC(NC(=O)C(NC(=O)c2ccc(Cn3cccn3)cc2)[C@@H](C)OC(C)(C)C)CN1C(=O)c1ccccc1 (some centres unmarked) [Compound 10]	49 ± 2.9	0.06 ± 0.03	> 100	
CCCc1cc(C(=O)N2CCC(C(=O)NC(CC(=O)NC)c3cccc(C(F)(F)F)c3)(c3ccc(Br)cc3)CC2)n(C)n1 (centres unmarked) [Compound 11]	0.3 ± 0.1	5 ± 1.2	12.4 ± 1.4	
CNC(=O)C1CCCN1C(=O)CC1CCC(NC(=O)C2CC(c3ccccc3)CN2)CC1 (centres unmarked) [Compound 12]	> 100	6.3 ± 2.6	> 100	
NC(=O)C1=CN([C@@H]2O[C@H](COP(=O)(O)OP(=O)(O)OC[C@H]3O[C@@H](n4cnc5c(N)ncnc54)[C@H](O)[C@@H]3O)[C@@H](O)[C@H]2O)C=CC1 [NADH]				Kd (full length PHGDH [2]): 0.33 ± 0.08 µM; N (stoichiometry) (full length PHGDH [2]): 0.78 ± 0.01; Kd (full length PHGDH [3]; SPR steady state fit, full length PHGDH): 0.4 ± 0.03 µM; fold tighter binding to the full-length protein than to the NAD binding domain (full length PHGDH [3]; combination of ITC and SPR measurements): approximately 20 fold; Kd [4]: 6.7 ± 0.5 µM
